Experimental data published in patent publication US20110152225A1, “PPAR-Gamma Agonists for the Induction of Cationic Antimicrobial Peptide Expression as Immunoprotective Stimulants” (priority 2007, published 2011).

Assays:
HD-5 = HD-5 defensin gene expression in intestinal epithelial cells (Caco-2), quantitative PCR; assay type: cell-based, human; details: for activation of HD-5, as determined by quantitative PCR analysis: Caco-2 cells
Procedure: (§1) Cultured intestinal epithelial cell lines, namely Caco-2 (of human origin) and ICcl2 (of mice origin), were treated with the GSK-3 inhibitor LiCl ([…]) or the phosphatase inhibitor calyculin (50 nM) followed or not by stimulation with the PPAR-gamma agonist such as rosiglitazone (1 microM).
(§2) The expression of defensin and known target genes of both Wnt and PPAR-gamma signaling pathways were investigated by quantitative real-time PCR. The activation of GSK3, beta-catenin, NF-kappaB, ERK1/2, SAPK/JNK and p38 was measured by specific immunoblotting.

LL37 = LL37 (defensin) mRNA expression in colon of healthy mice; assay type: in vivo; details: for induction of defensin expression / potency in defensin expression induction compared to 5-ASA: conclusion on the in vitro and in vivo results; for colon defensin (LL37) mRNA expression: healthy mice (n=5), enema during 10 days, 5-ASA 30 mM, R34, E1 and E2 1 mM
Procedure: […] Post-mortem, total RNA was isolated from whole mice colonic tissues using Rneasy kit (Macherey Nagel, Hoerdt, France) according to the manufacturer's instructions. RNA quantification was performed using spectrophotometry. After treatment at 37° C. for 30 min with 20-50 units of RNase-free DNase I (Roche Diagnostics Corporation, Indianapolis, Ind., USA), oligo-dT primers (Roche Diagnostics Corporation, Indianapolis, USA) were used to synthesize single-stranded cDNA. mRNAs were quantified using SYBR green Master Mix (Applera, Courtaboeuf, France) with mouse specific oligonucleotides for LL37(S:5′-gCTgATTCTTTTgACATCAgCTgTAA-3′ AS:5′-gCCAgCCgggAAATTTTCT-3′) in a GeneAmp Abiprism 7000 (Applera, Courtaboeuf, France). In each assay, calibrated and no-template controls were included. Each sample was run in triplicate. SYBR green dye intensity was analyzed using the Abiprism 7000 SDS software (Applera, Courtaboeuf, France). All results were normalized to the unaffected housekeeping gene β-actin (S:5′-gggTCAgAAggATTCCTATg-3′; AS:5′ ggTCTCAAACATgATCTggg-3′).

hBD1 = hBD1 defensin mRNA expression in colonic epithelial Caco-2 cells; assay type: cell-based, human; details: stimulated for 24 h
Excerpt: 5-ASA was purchased at Sigma-Aldrich (St Quentin Fallavier, France). Rosiglitazone was synthesized in the laboratory according to standard procedures. The racemic compound 34 and the two enantiomers of the compound, 34-E1 and 34-E2 were provided by Giuliani SpA (Milano, Italy). Compound were re-suspended in DMEM medium (Gibco) and adjusted at pH=7 if necessary with 10N NaOH.
The colon carcinoma cell line Caco-2 (ATCC HTB-39) was routinely grown in DMEM supplemented respectively with 10% or 20% heat-FCS, and antibiotics. Cells were grown in monolayers, incubated at 37° C. in 5% CO2 and 95% relative humidity.
Cell were stimulated by 5-ASA, R34, 34-E1 and 34-E2 for 24 h. Total RNA was isolated from cells using Rneasy kit (Macherey Nagel, Hoerdt, France) according to the manufacturer's instructions. RNA quantification was performed using spectrophotometry. After treatment at 37° C. for 30 min with 20-50 units of RNase-free DNase I (Roche Diagnostics Corporation, Indianapolis, Ind., USA), oligo-dT primers (Roche Diagnostics Corporation, Indianapolis, USA) were used to synthesize single-stranded cDNA. mRNAs were quantified using SYBR green Master Mix (Applera, Courtaboeuf, France) with human specific oligonucleotides for hBD1(S:5′-[…]-3′; AS:5′-TTgTCTGAGATGGCCTCAggTggTAAC-3′) in a GeneAmp Abiprism 7000 (Applera, Courtaboeuf, France). In each assay, calibrated and no-template controls were included. Each sample was run in triplicate. SYBR green dye intensity was analyzed using the Abiprism 7000 SDS software (Applera, Courtaboeuf, France). All results were normalized to the unaffected housekeeping gene of human β-actin (S:5′-TCACCCACACTgTgCCCATCTACg-3′; AS:5′-CAgCggAACCgCTCATTgCCAATg-3′).

PPAR-gamma = PPAR-gamma mRNA expression in colon of healthy mice; assay type: in vivo; details: healthy mice (n=5); enema during 10 days; 5-ASA 30 mM, R34, E1 and E2 1 mM
[1] = tested on: Clostridium bacterial cultures; details: agar plates in aerobic and anaerobic conditions; U.S. Pat. No. 6,326,364; cited from earlier work
[2] = tested on: colonies of Lactobacillus, Enterococcus or Bacteroides; details: U.S. Pat. No. 6,326,364; cited from earlier work
beta-catenin = assay: Stability of beta-catenin, immunoblotting; assay type: cell-based; details: stimulation by both calyculin and rosiglitazone
Procedure: as §1, §2

cyclin-D1 = assay: Expression of Wnt/Tcf/beta-catenin target gene cyclin-D1, quantitative real-time PCR; assay type: cell-based; details: stimulation by both calyculin and rosiglitazone
Procedure: as §1, §2

| Compound | activation of HD-5, as determined by quantitative PCR analysis (HD-5) | induction of defensin expression (LL37) | colon defensin (LL37) mRNA expression (LL37) | expression of hBD1 (human defensin-1) (hBD1) | colon PPARy mRNA expression (PPAR-gamma) | other results |
| --- | --- | --- | --- | --- | --- | --- |
| CCOC(Cc1cccc(N)c1)C(=O)O (racemic) [Compound 40, (±)-2-ethoxy-3-(3′-aminophenyl)propionic acid] | activates HD-5 | – | – | – | – | – |
| [Cl-].[Li+] [LiCl, reference compound] | – | – | – | – | – | rosiglitazone-induced defensin gene expression (HD-5; co-stimulation with LiCl): blocked |
| COC(Cc1ccc(N)cc1)C(=O)O (racemic) [Compound R34, (±)-2-methoxy-3-(4′-aminophenyl)propionic acid] | – | induction of defensin expression | induced | induce the expression of hBD1 | induced | – |
| CO[C@H](Cc1cccc(N)c1)C(=O)O [Compound 34-E2, (−) 2-R-methoxy-3-(3-aminophenyl)propionic acid] | – | induction of defensin expression | induced | induce the expression of hBD1 | induced | potency in defensin expression induction compared to 5-ASA (LL37): higher potency; gut defensin expression induction (LL37; summary statement referring to FIGS. 8 & 9): particularly effective |
| COc1ccc(N)cc1C(=O)NO [Compound 14, 5-amino-N-hydroxy-2-methoxybenzamide] | activates HD-5 | – | – | – | – | – |
| Nc1ccc(O)c(C(=O)O)c1 [Compound 5-ASA, 5-aminosalycilate, reference compound] | activates HD-5 | induction of defensin expression | induced | induce the expression of hBD1 | induced | antimicrobial effect against Clostridium bacterial cultures [1]: inhibitory effects; antimicrobial effect against colonies of Lactobacillus, Enterococcus or Bacteroides [2]: No effect |
| calyculin | – | – | – | – | – | antimicrobial (defensin) gene expression induced by PPAR-gamma activators following co-stimulation (HD-5; co-stimulation by calyculin with rosiglitazone and other PPAR-gamma activators): synergized; stability of the beta-catenin (beta-catenin): markedly decreased; expression of Wnt/Tcf/beta-catenin target gene cyclin-D1 (cyclin-D1): markedly decreased |
| CO[C@@H](Cc1cccc(N)c1)C(=O)O [Compound 34-E1, (+) 2-S-methoxy-3-(3-aminophenyl)propionic acid] | – | induction of defensin expression | induced | – | induced | potency in defensin expression induction compared to 5-ASA (LL37): higher potency |
| CCOC(Cc1ccc(N)cc1)C(=O)O (racemic) [Compound 39, (±)-2-ethoxy-3-(4′-aminophenyl)propionic acid] | activates HD-5 | – | – | – | – | – |
